# Assay results as given in patent US11806386B2, “Type I diabetes therapy” (St. Vincent's Institute of Medical Research, priority 2017, dated 2023).
# Key:
# [1] = test system: JAK/STAT signalling (p-STAT1); experiment: IFNγ-mediated STAT1 phosphorylation in peripheral blood stimulated ex vivo after oral dosing (Western blot); design: species or system NOD mice; conditions: 80 mg/kg daily oral gavage from 2 to 4 weeks of age; blood taken 2 h after last dose, 100 U/mL IFNγ ex vivo; p=0.01
# Experimental: (A) NOD mice received 80 mg/kg ruxolitinib (n=5) or vehicle (n=5) daily by oral gavage from 2 to 4 weeks of age. Two hours after last dose of ruxolitinib or vehicle, peripheral blood was stimulated with 100 U/mL IFNγ ex vivo and analysed by Western blot for IFNγ-mediated phosphorylation of STAT1 and housekeeping protein β-actin. The intensity of p-STAT1 as a ratio of β-actin in arbitrary units (mean±SEM) was used to measure p-STAT1. p=0.01 using two-tailed unpaired t test.
# The JAK1/JAK2 inhibitor ruxolitinib was purchased from Chemietek (USA). […] Mice receiving JAK inhibitor were treated with 80 mg/kg ruxolitinib daily by oral gavage from 2 to 4 weeks of age. Control mice received the same volume of vehicle by oral gavage.
# Peripheral whole blood was stimulated with 100 U/mL IFN-γ (Biolegend) for 30 min at 37° C. […] Samples were further treated with radioimmunoprecipitation assay buffer (R0278, Sigma), sample buffer (10% SDS, 30% glycerol, 0.02% bromophenol blue in 250 mM Tris-HCl, pH 6.8) and β-mercaptoethanol. Near-infrared fluorescent western blotting was performed using anti-p-STAT1 antibody (BD Biosciences), normalized to β-actin (Santa Cruz Biotechnology) and scanned on an Odyssey CLx imager.
# At 4 weeks of age, two hours after the last oral gavage of 80 mg/kg ruxolitinib or vehicle, peripheral blood and islets were harvested from NOD mice.
# [2] = test system: other JAK-family kinases; conditions: cited from earlier work
# [3] = target: JAK2 (Homo sapiens, UniProt O60674); conditions: cited from earlier work
# Chain of JAK2 (O60674 whole entry, species assumed): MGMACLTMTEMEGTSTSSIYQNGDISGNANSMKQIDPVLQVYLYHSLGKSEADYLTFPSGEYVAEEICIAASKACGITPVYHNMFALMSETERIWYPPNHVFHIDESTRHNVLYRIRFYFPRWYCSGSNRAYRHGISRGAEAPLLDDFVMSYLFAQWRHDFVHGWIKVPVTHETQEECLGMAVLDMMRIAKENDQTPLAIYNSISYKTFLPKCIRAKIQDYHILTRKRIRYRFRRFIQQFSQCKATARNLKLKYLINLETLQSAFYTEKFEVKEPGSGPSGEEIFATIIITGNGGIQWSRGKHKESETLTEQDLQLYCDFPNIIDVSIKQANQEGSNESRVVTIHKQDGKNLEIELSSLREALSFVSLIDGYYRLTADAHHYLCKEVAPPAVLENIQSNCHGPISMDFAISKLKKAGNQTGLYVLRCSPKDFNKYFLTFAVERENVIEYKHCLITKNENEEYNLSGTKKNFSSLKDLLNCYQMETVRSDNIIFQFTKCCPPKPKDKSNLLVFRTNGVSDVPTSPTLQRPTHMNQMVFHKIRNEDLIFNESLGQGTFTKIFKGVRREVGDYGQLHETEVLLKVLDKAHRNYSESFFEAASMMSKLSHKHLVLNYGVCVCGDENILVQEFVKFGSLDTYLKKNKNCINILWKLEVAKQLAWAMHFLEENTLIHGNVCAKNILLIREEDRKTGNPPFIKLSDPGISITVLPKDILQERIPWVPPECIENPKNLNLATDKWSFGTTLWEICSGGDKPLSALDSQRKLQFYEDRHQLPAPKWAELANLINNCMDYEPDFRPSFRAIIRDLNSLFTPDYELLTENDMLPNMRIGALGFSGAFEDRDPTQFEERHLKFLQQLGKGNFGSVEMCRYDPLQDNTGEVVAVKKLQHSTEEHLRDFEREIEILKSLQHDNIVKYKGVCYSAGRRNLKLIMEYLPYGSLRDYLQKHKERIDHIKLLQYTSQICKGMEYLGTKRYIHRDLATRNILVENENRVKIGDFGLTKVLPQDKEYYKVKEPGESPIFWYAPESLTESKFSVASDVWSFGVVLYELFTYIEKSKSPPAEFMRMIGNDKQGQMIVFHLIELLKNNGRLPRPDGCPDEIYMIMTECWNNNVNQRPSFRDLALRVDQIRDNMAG
# [4] = test system: IGRP-specific CD8+ T cells
# Experimental: IGRP was expressed in TII mice at 10-weeks of age. NOD mice were used as controls without antigen expression. At 13-weeks of age, mice were treated for 2 weeks with vehicle (Veh) or JAK inhibitor (JAKi). Mice were harvested for analysis immediately after treatment (2 week), or after a further 2 or 4 weeks with antigen alone (4 week and 6 week). The number of IGRP-specific CD8+ T cells in the peripheral lymphoid organs (PLO, top panel) or islets (bottom panel) is shown for each time point.
# TII mice received doxycycline until 10-weeks of age. After doxycycline was removed, IGRP was expressed in antigen presenting cells of mice carrying both tetO-IGRP and IEα-tTA transgenes. Mice were treated with 10 mg/kg JAK inhibitor or vehicle between 13-15 w of age for 2 weeks. Mice were analysed at 2 weeks (harvest immediately after stopping JAK inhibitor), 4 weeks (harvest two weeks after stopping JAK inhibitor), and 6 weeks (harvest four weeks after stopping JAK inhibitor). Data is from 1-3 experiments per time point with 3-4 mice per group/experiment.
# Cells were washed then stained with anti-PE MicroBeads (Miltenyi Biotec) and magnetically separated using an AutoMACSpro (Miltenyi Biotec).
# Fluorescent-labelled monoclonal antibodies specific for CD4 (GK1.5) bound to APC-Cy7, CD8 (53-6.7) bound to FITC, CD3 (500A2) bound to AmCyan, CD44 (IM7) bound to Alexa Fluor 700, and CD11 b (M1/70), CD11c (N418) and Ly6G (RB6-8C5) bound to Pacific Blue were used to stain magnetically sorted cells. Analysis was performed using FACSFortessa (BD Bioscience) and FlowJo software (TreeStar). Single cells were gated on forward and side scatter, and dead cells excluded using propidium iodide. CD11 b^− CD11c^− Ly6G^− CD3^+ CD8^+ cells were gated as the target population for analysis of IGRP tetramer-positive T cells.
# [5] = test system: diabetes in TIP2 mice; conditions: combination therapy: TIP2 mice expressing proinsulin plus 10 mg/kg twice daily oral from 12 to 14 weeks of age (cohort 3); p<0.005
# Experimental: Mice were monitored for 30 weeks (210 days). […] Diabetes incidence curves compared using Log-Rank (Mantel-Cox) test.
# Removal of doxycycline allowed the maximal recovery of proinsulin expression by 12 weeks (84 days) of age.
# Mice receiving JAK inhibitor were treated with 10 mg/kg dose twice daily by oral gavage from 12 to 14 weeks (day 84-98) of age. Control mice received the same volume of vehicle by oral gavage.
# Female mice were monitored for diabetes weekly by measurement of urinary glucose levels using Diastix (Bayer). Those suspected of hyperglycaemia had further blood glucose level testing on two consecutive days using ACCU-CHEK Advantage II strips (Roche). Mice with two consecutive blood glucose measurements of greater than or equal to 15 mM were considered diabetic.
# TIP2 mice were administered doxycycline until 8 weeks of age to suppress proinsulin expression. At 12 weeks of age TIP2 mice received JAK inhibitor (combination therapy; cohort 3; FIG. 4A) or vehicle (proinsulin monotherapy; cohort 2).
compound,measurement,setting,value
N#CC[C@H](C1CCCC1)n1cc(-c2ncnc3[nH]ccc23)cn1 [ruxolitinib],reduction of STAT1 phosphorylation compared to vehicle-treated NOD mice,[1],greater than 50%
C[C@H](Nc1cc(-c2cnn(C)c2)cc(Nc2cnccn2)n1)c1ccc(F)cc1 [NS018],selectivity for JAK2 over other JAK-family kinases,[2],30-50 fold
same,IC50,[3],< 1 nM
CC(C)(C)c1nc2c3cc[nH]c(=O)c3c3cc(F)ccc3c2[nH]1 [JAK inhibitor],IGRP specific memory T cells 2 weeks after cessation of treatment,[4]; NOD mice without antigen expression (NOD-JAKi),returned
same,IGRP specific memory T cells in PLO and in islets immediately after 2 weeks of treatment,"[4]; TII mice expressing IGRP from 10 weeks, 10 mg/kg for 2 weeks, TII-Veh vs TII-JAKi",decrease
same,IGRP specific memory T cell numbers after cessation of treatment,"[4]; TII mice with antigen expression (TII-JAKi), islets at 6 weeks p=0.02, PLO p=0.054",remained low
same,protection from diabetes at 30 weeks of age (210 days),[5],significantly protected from diabetes
